Source: patent US9132126B2, “Phenyl-isoxazole derivatives and preparation process thereof” (priority 2011, dated 2015)
Converted amounts (≈) assume the structure as drawn. Like-named read-outs stand apart in the source and are kept apart here.

Tested on: Oseltamivir resistant strain virus
Test: microbe, parasite or virus in culture
Assay type: cell-based, influenza virus
[1] = unidentified influenza virus, read-out: EC50

Structure (SMILES)	SI value	antiviral activity effect on a virus strain resistant to Oseltamivir (tamiflu)	EC50 (Oseltamivir resistant strain)	antiviral activity effect on a virus strain resistant to Oseltamivir (tamiflu) (in words)	EC50 [1]
COc1ccccc1N1CCN(C(=O)c2c(-c3ccccc3C(F)(F)F)noc2C)CC1 [Example 4]	1.563 to 3.125	high antiviral activity effect	50 mg/L (≈ 112 µM)	–	–
COc1cccc(N2CCN(C(=O)c3c(-c4ccccc4C(F)(F)F)noc3C)CC2)c1 [Example 3, (4-(3-methoxyphenyl)piperazine-1-yl)(5-methyl-3-(2-(trifluoromethyl)phenyl)isoxazol-4-yl)methanone]	3276.59 to 9812.50	–	–	high antiviral activity effect	0.064 to 0.094 mg/L (≈ 0.144 to 0.211 µM)
COc1cccc(N2CCN(C(=O)c3c(-c4cccc(F)c4)noc3C)CC2)c1 [Example 12, (3-(3-fluorophenyl)-5-methylisoxazol-4-yl)(4-(3-methoxyphenyl)piperazine-1-yl)methanone]	50.016 to 100.032	–	–	high antiviral activity effect	1.56 mg/L (≈ 3.95 µM)
Cc1onc(-c2ccccc2OC(F)(F)F)c1C(=O)N1CCN(c2ccc(Cl)c(Cl)c2)CC1 [Example 35, (4-(3,4-dichlorophenyl)piperazine-1-yl)(5-methyl-3-(2-(trifluoromethoxy)phenyl)isoxazol-4-yl)methanone]	1602.564 to 3205.128	–	–	high antiviral activity effect	0.195 mg/L (≈ 0.39 µM)
CCOC(=O)C1CCN(C(=O)c2c(-c3ccccc3OC(F)(F)F)noc2N)CC1 [Example 124]	12.5	high antiviral activity effect	25 mg/L (≈ 58.5 µM)	–	–
Cc1onc(-c2cccc(F)c2)c1C(=O)N1CCN(c2ccc(Cl)c(Cl)c2)CC1 [Example 11, (4-(3,4-dichlorophenyl)piperazine-1-yl)(3-(3-fluorophenyl)-5-methylisoxazol-4-yl)methanone]	1471.794 to 3205.128	–	–	high antiviral activity effect	0.195 mg/L (≈ 0.449 µM)
COc1cccc(N2CCN(C(=O)c3c(-c4ccccc4Cl)noc3C)CC2)c1 [Example 9, (3-(2-chlorophenyl)-5-methylisoxazol-4-yl)(4-(3-methoxyphenyl)piperazine-1-yl)methanone]	3221.649 to 13020.833	–	–	high antiviral activity effect	0.048 to 0.097 mg/L (≈ 0.117 to 0.236 µM)
Cc1onc(-c2cccc(F)c2)c1C(=O)N1CCN(c2ccccc2O)CC1 [Example 16, (3-(3-fluorophenyl)-5-methylisoxazol-4-yl)(4-(2-hydroxyphenyl)piperazine-1-yl)methanone]	100.032 to 200.321	–	–	high antiviral activity effect	0.39 to 0.781 mg/L (≈ 1.02 to 2.05 µM)
COc1cccc(N2CCN(C(=O)c3c(-c4ccccc4Cl)noc3N)CC2)c1 [Example 60, (5-amino-3-(2-chlorophenyl)isoxazol-4-yl)(4-(3-methoxyphenyl)piperazine-1-yl)methanone]	–	–	–	high antiviral activity effect	0.053 to 0.094 mg/L (≈ 0.128 to 0.228 µM)
CCOC(=O)C1=C[C@@H](OC(CC)CC)[C@H](NC(C)=O)[C@@H](N)C1 [Oseltamivir, reference compound]	12.5 to 25	–	–	–	50 mg/L (≈ 160 µM)
